The text below walks through data of PubChem BioAssay AID743426 (The Scripps Research Institute Molecular Screening Center, 2014).

The structures appear in SMILES notation. The source made the active and inactive calls. No rule for the calls is given here. Where only a bound is given, the exact number is not on record here.

Chain of Sphingosine 1-phosphate receptor 1 (Homo sapiens) (P21453 whole entry, looked up): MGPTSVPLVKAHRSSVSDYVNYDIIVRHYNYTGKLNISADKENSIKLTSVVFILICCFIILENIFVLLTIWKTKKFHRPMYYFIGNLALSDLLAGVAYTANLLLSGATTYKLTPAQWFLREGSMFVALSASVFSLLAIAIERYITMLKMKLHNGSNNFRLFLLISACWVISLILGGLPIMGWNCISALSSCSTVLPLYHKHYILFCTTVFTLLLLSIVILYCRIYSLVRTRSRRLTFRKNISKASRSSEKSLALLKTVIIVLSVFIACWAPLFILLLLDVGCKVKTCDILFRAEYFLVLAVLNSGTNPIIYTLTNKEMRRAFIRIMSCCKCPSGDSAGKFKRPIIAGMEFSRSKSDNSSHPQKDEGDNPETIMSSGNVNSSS

This assay addresses Sphingosine 1-phosphate receptor 1 (Homo sapiens) (UniProt P21453). The experiment in a line: S1P1 receptor activation, potency – cell-based, fluorescence, late-stage, counter-screen for S1PR3 antagonist project, dose response (AID 743426). Conditions: S1P1-expressing cells, agonist counterscreen. (In general: The purpose of a counterscreen is to sort out artefacts and off-target activity.)
Turning to `CCc1ccc(C(NC(=O)c2cccc(Cl)c2)c2nc(-c3ccccc3)no2)cc1` (configuration not stated), the EC50 is > 50 µM (inactive).

For `O=C(c1cccc(Cl)c1)N(CCO)C(c1ccc(Cl)c(Cl)c1)c1nc(-c2ccccc2)no1` (configuration not stated), the EC50 result was “inactive”.

For the compound `O=C(NC(c1ccc(Cl)c(Cl)c1)c1nc(-c2ccccc2)no1)c1cccc(Cl)c1` (configuration not stated), the EC50 was > 50 µM (inactive).

With `O=C(NC(c1ccccc1)c1nc(-c2ccccc2)no1)c1cccc(Cl)c1` (configuration not stated), the EC50 is > 50 µM (inactive).

Consider `O=C(NC(c1cccc(Cl)c1)c1nc(-c2ccccc2)no1)c1ccc(Cl)c(Cl)c1` (configuration not stated), for which the EC50 is > 50 µM (inactive).

Regarding `O=C(NC(c1ccc(Cl)c(Cl)c1)c1nc(-c2ccccc2)no1)c1ccccc1` (configuration not stated), the EC50 was > 50 µM (inactive).

`O=C(NC(c1ccc(Cl)cc1)c1nc(-c2ccccc2)no1)c1ccc(Cl)c(Br)c1` (configuration not stated): the EC50 is > 50 µM (inactive).

For the compound `O=C(NC(c1ccc(Cl)cc1)c1nc(-c2ccccn2)no1)c1cccc(Cl)c1` (configuration not stated), the EC50 is > 50 µM (inactive).

On to `O=C(NC(c1cccc(Cl)c1)c1nc(-c2ccccc2)no1)c1cccc(Cl)c1` (configuration not stated), for which the EC50 was > 50 µM (inactive).

As for `Cc1ccc(C(=O)NC(c2ccccc2)c2nc(-c3ccccc3)no2)cc1` (configuration not stated), the EC50 is > 50 µM (inactive).

For the compound `O=C(NC(c1ccc(Cl)cc1)c1nc(-c2cccc(Cl)c2)no1)c1cccc(Cl)c1` (configuration not stated), the EC50 was > 50 µM (inactive).

As for `Cc1ccc(C(NC(=O)c2cccc(Cl)c2)c2nc(-c3ccccc3)no2)cc1` (configuration not stated), the EC50 was > 50 µM (inactive).

Regarding `O=C(NC(c1ccc(Cl)cc1)c1nc(-c2ccccc2)no1)c1ccc(Cl)c(Cl)c1` (configuration not stated), the EC50 is > 50 µM (inactive).

Regarding `O=C(NC(c1ccc(Cl)c(Cl)c1)c1nc(-c2ccccc2)no1)c1ccc(Cl)cc1` (configuration not stated), the EC50 was > 50 µM (inactive).

Regarding `N#Cc1ccc(C(=O)NC(c2ccc(Cl)c(Cl)c2)c2nc(-c3ccccc3)no2)cc1` (configuration not stated), the EC50 is > 50 µM (inactive).

Regarding `O=C(NC(c1ccccc1)c1nc(-c2ccccc2)no1)c1ccc(Cl)cc1` (configuration not stated), the EC50 is > 50 µM (inactive).

Take `O=C(NC(c1ccc(Cl)c(Cl)c1)c1nc(-c2ccccc2)no1)c1ccc(Cl)c(Cl)c1` (configuration not stated): the EC50 was > 50 µM (inactive).

`O=C(NC(c1ccccc1)c1nc(-c2ccccc2)no1)c1cccc(Cl)n1` (configuration not stated): the EC50 entry was “inactive”.

With `O=C(NC(c1ccc(Cl)cc1)c1nc(-c2ccccc2)no1)c1cccc(Cl)c1` (configuration not stated), the EC50 was > 50 µM (inactive).

In the case of `O=C(NC(c1ccc(Br)cc1)c1nc(-c2ccccc2)no1)c1ccc(Cl)c(Cl)c1` (configuration not stated), the EC50 was > 50 µM (inactive).

As for `COc1ccc(C(=O)NC(c2ccccc2)c2nc(-c3ccccc3)no2)cc1` (configuration not stated), the EC50 was > 50 µM (inactive).

Turning to `O=C(NC(c1ccccc1)c1nc(-c2ccccc2)no1)c1cccc(Br)c1` (configuration not stated), the EC50 entry was “inactive”.

On to `O=C(NC(c1nc(-c2ccccc2)no1)C1CCCCC1)c1ccc(Cl)c(Cl)c1` (configuration not stated), for which the EC50 was > 50 µM (inactive).

Take `O=C(NC(c1cccc(Cl)c1)c1nc(-c2ccccc2)no1)c1cc(Cl)cc(Cl)c1` (configuration not stated): the EC50 was > 50 µM (inactive).

For the compound `O=C(NC(c1ccc(Cl)cc1)c1nc(-c2ccccc2)no1)c1cccc(Br)c1` (configuration not stated), the EC50 was > 50 µM (inactive).

For the compound `O=C(NC(c1nc(-c2ccccc2)no1)C1CCOCC1)c1ccc(Cl)c(Cl)c1` (configuration not stated), the EC50 is > 50 µM (inactive).

Regarding `O=C(NC(Cc1ccccc1)c1nc(-c2ccccc2)no1)c1cccc(Cl)c1` (configuration not stated), the EC50 result was “inactive”.

What is called EC50 is the concentration needed to bring the measured effect to its halfway point.
